Measured values as given in patent US20240277684A1, “BLOCKADE OF CHEMOKINE (C-C MOTIF) RECEPTOR 2 DURING FLUID RESUSCITATION” (University of South Florida, priority 2022, published 2024).

Columns and labels:
severe hemorrhagic shock = test: Example 2 Series 4: lethal hemorrhage without fluid resuscitation; type: in vivo, rat; details: 5 μmol/kg INCB3284 or 1 μmol/kg SB328437 after 40% TBV hemorrhage
Description: The hemorrhagic shock models were performed as described previously, with slight modifications (DeSantis A J, et al., The Chemokine (C-C Motif) Receptor 2 Antagonist INCB3284 Reduces Fluid Requirements and Protects From Hemodynamic Decompensation During Resuscitation From Hemorrhagic Shock. Crit Care Explor 2022;4(5):e0701; Bach H H, et al., Chemokine (C-X-C motif) receptor 4 and atypical chemokine receptor 3 regulate vascular alpha(1)-adrenergic receptor function. Mol Med 2014; 20:435-47; Nassoiy S P, et al., Effects of the Kv7 voltage activated potassium channel inhibitor linopirdine in rat models of hemorrhagic shock. Clin Exp Pharmacol Physiol 2018. doi: 10.1111/1440-1681.12958. PubMed PMID: 29702725; Bach H H, et al., Proteasome inhibition prolongs survival during lethal hemorrhagic shock in rats. J Trauma Acute Care Surg 2013; 74(2):499-507). In brief, anesthesia induction was performed with the animal and isoflurane-soaked gauze placed in a bell jar. After anesthesia induction, the animals were transferred to the operative field and anesthesia was maintained with 2.7% isoflurane administered via nose-cone inhalation with the SomnoSuite small animal anesthesia system (Kent Scientific Corporation, Torrington, CT, USA). […] Using a direct cut-down technique, the left femoral artery was isolated and cannulated with a 24-gauge peripheral intravenous catheter to allow for blood withdrawal, hemodynamic monitoring, drug administration, and fluid resuscitation. After catheter placement, isoflurane was decreased to 1.5%. Hemodynamics were continuously monitored with the Surgivet invasive blood pressure monitor (Med-Electronics, Beltsville, MD, USA). Blood pressures were recorded at 1-5 min intervals during the hemorrhage and resuscitation periods. Four subsequent series of experiments were performed. All experiments in each series were performed in alternating order. In all experiments animals were continuously monitored and remained under general anesthesia until euthanasia or death, as defined by asystole or loss of pulse pressure.
Series 4: The purpose of these experiments was to determine whether treatment with the chemokine receptor antagonists increases shock tolerance, blood pressure and survival time without additional fluid resuscitation. As such, death is an intentional endpoint. Earlier endpoints are unable to answer these questions and alternatives are not available. Rats were hemorrhaged 40% total blood volume (TBV) within 10 min. At t=15 min, animals were injected with vehicle (1 mL NS, n=3), 5 μmol/kg INCB3284 in 1 mL NS (n=5) or […] SB 328437 in 1 mL NS (n=5). Animals were then hemorrhaged 2% TBV every 5 minutes until death.

hemorrhagic shock = test: Example 1 second series: 30 min hemorrhagic shock, fluid resuscitation until t=300 min; type: in vivo, rat
Description: In vivo animal experiments. All procedures were performed in accordance with the National Institutes of Health Guidelines for Use of Laboratory Animals and were approved by the University of South Florida Institutional Animal Care and Use Committeee (IS00008139). Male Sprague-Dawley rats (300-400 g, Envigo, Indianapolis, IN, USA). were anesthetized with 1.7% isoflurane via nose-cone inhalation with the SomnoSuite anesthesia system (Kent Scientific, Torrington, CT, USA). […] The left femoral artery was isolated and cannulated with a 24-gauge peripheral intravenous catheter to allow for blood withdrawal, hemodynamic monitoring, drug administration, and fluid resuscitation. Hemodynamics were continuously monitored with the SurgivetV6400 blood pressure monitor (Med-Electronics, Beltsville, MD, USA), and blood pressures and heart rate were recorded at 1-10 min intervals. All animals were observed over a 10 min period to ensure hemodynamic stability before start of the experiments. All experiments were performed randomized in alternating order.
To test the effects of INCB3284 and Maraviroc after HS, a Wiggers fixed pressure hemorrhage and fluid resuscitation model was used as described (Babu F S, et al., Chemokine (C-X-C motif) receptor 4 regulates lung endothelial barrier permeability during resuscitation from hemorrhagic shock. Physiol Res 2019; 68(4):675-679; Nassoiy S P, et al., Effects of the Kv7 voltage-activated potassium channel inhibitor linopirdine in rat models of haemorrhagic shock. Clin Exp Pharmacol Physiol 2018; Nassoiy S P, et al., Kv7 voltage-activated potassium channel inhibitors reduce fluid resuscitation requirements after hemorrhagic shock in rats. J Biomed Sci 2017; 24(1):8; Bach H Ht, et al., Proteasome inhibition prolongs survival during lethal hemorrhagic shock in rats. J Trauma Acute Care Surg 2013; 74(2):499-507; Bach H Ht, et al., Chemokine (C-X-C motif) receptor 4 and atypical chemokine receptor 3 regulate vascular alpha(1)-adrenergic receptor function. Mol Med 2014; 20:435-447), with slight modifications. In brief, rats were hemorrhaged to a mean arterial blood pressure (MAP) of less than or equal to 30 mmHg for a period of 30 minutes. At the end of the HS period (t=30 min), animals were injected with either vehicle (1 mL LR) or drug in 1 mL LR, followed by fluid resuscitation with 1 mL bolus injections of LR to maintain a systolic blood pressure (SBP) of 90 mmHg or a MAP of 60 mmHg. To avoid fluid overload, bolus injections of LR were limited to 1 mL/min. In the first series of experiments, animals received 1 mL of LR (n=9), 1.1 μmol/kg (n=4) or 5.5 μmol/kg (n=5) INCB3284 in 1 mL LR or […] Maraviroc (n=3) in 1 mL LR at t=30 min. Animals were then resuscitated until t=90 min. At t=0, 15, 30, 60 and 90 min, blood samples were obtained, and plasma prepared. Samples were stored at −70° C. until further processing. At t=90 min, animals were euthanized (isoflurane inhalation, bilateral pneumothorax).
In the second series of experiments, animals received 1 mL of LR (n=10) or 5 μmol/kg INCB3284 in 1 mL LR (n=8) at t=30 min. Animals were resuscitated until t=300 min. Blood samples were obtained for arterial blood gas analyses and measurements of routine laboratory parameters at time points t=0, 30, 90, 150, 210, 270 and 300 min. Death was defined as asystole or loss of a pulse pressure. At the end of the experiments, surviving animals were euthanized as described before. In animals that survived until t=300 min, a gross necropsy was performed after euthanasia, and tissue from lung, small intestine, and colon was collected for measurements of wet-weight/dry-weight ratios.
Arterial blood gases and routine laboratory parameters. Arterial blood gases, electrolytes, creatinine, lactate, hematocrit and hemoglobin were analyzed using the Element point of care veterinary blood gas, electrolyte and critical care analyzer (Cuattro Veterinary USA, Loveland, CO, USA).
Wet-weight/dry-weight ratios.

[1] = test system: isolated rat mesenteric arteries; test: Pressure myography with isolated rat mesenteric arteries; details: 10 μM, 15 min pre-exposure, vs vehicle
[2] = 5 μmol/kg, animals that survived until t=300 min
[3] = 5 μmol/kg, animals that survived until t=300 min, vs vehicle

COc1ccc([C@]2(O)CC[C@@H](N3CC[C@@H](NC(=O)CNC(=O)c4cccc(C(F)(F)F)c4)C3)CC2)cn1 [INCB3284]
MAP during subsequent 2% TBV hemorrhages in 5 min intervals (severe hemorrhagic shock; no fluid resuscitation): indistinguishable among groups | median survival time (severe hemorrhagic shock; not significantly different between groups): 80 min | colon wet weight/dry weight ratios, difference to vehicle (hemorrhagic shock; [2]): did not reach statistical significance | small bowel wet weight/dry weight ratios, difference to vehicle (hemorrhagic shock; [2]): did not reach statistical significance | lung wet weight/dry weight ratios (hemorrhagic shock; [3]): significantly reduced | wet weight/dry weight ratios of all tissues combined (hemorrhagic shock; [3]): significantly reduced | animals demonstrating the beginning of hemodynamic decompensation (hemorrhagic shock; 5 μmol/kg, n=8, p<0.01 vs. vehicle): None | mortality (hemorrhagic shock; 5 μmol/kg, until t=300 min, p<0.05): 0% | median survival time (hemorrhagic shock; 5 μmol/kg, p<0.05 vs. vehicle): > 300 min | reduction of average fluid requirements (hemorrhagic shock; single dose 5 μmol/kg at t=30 min, until t=300 min, vs vehicle): 62±6% | average fluid requirements (hemorrhagic shock; single dose 5 μmol/kg at t=30 min, until t=300 min, p<0.05): 61.9 ± 10 mL/kg | artery diameter [1]: did not alter artery diameter | phenylephrine-induced vasoconstriction [1]: did not alter artery diameter or affect phenylephrine-induced vasoconstriction
